# According to patent publication US9914730B2, “Azaquinazoline inhibitors of Atypical protein Kinase C” (Ignyta, Inc., priority 2012, dated 2018):
# pIC50: −log10 of the molar value.
# Target: T1, full-length human PKCι (Homo sapiens, UniProt P41743)
# T1 construct: Recombinant, full-length human PKCι expressed in Sf21 insect cells is also commercially available; purchased; host or cells: Sf21 insect cells
# T1 sequence (P41743 1-596): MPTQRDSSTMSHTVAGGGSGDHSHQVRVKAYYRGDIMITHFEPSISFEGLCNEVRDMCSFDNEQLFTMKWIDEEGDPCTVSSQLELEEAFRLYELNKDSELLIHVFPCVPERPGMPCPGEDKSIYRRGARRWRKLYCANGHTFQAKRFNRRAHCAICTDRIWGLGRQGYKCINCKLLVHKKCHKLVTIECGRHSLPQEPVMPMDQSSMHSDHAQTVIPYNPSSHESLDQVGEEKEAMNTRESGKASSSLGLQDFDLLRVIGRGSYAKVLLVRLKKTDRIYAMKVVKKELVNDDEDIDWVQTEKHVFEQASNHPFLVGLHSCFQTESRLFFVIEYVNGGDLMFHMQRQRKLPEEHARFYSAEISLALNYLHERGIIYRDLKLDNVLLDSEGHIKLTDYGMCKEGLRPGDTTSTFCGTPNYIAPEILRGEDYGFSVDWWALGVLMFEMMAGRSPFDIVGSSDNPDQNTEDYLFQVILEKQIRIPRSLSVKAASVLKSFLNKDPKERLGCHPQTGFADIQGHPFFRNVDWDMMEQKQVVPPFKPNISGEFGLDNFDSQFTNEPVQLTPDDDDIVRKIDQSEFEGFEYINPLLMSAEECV
# Assay: PKCι IC50 IMAP assay, full-length PKCι at 150 μM ATP
# Assay type: biochemical
# Conditions: read-out: IC50 in IMAP assay against full length PKCi at 150 μM ATP
# Outline: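 IC50 from IMAP FP (ex 485/em 530 nm) after 60 min room-temperature reaction in pH 7.5 tris buffer with 9 mM MgCl2 and 0.9 mM DTT. Enzyme: full-length Sf21-expressed PKCι (~15 pM); ATP 150 μM, five times KM^APP; FAM-labelled peptide 100 nM; DMSO 4%.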
row,pIC50,SMILES
1,> 7.00,"FC(F)(F)Cn1cc(Cl)c(Nc2cc(-c3nc(N4CCNCC4)c4c(C5CC5)cncc4n3)ccn2)n1 [Example 2030, [4-Chloro-1-(2,2,2-trifluoro-ethyl)-1H-pyrazol-3-yl]-[4-(5-cyclopropyl-4-piperazin-1-yl-pyrido[3,4-d]pyrimidin-2-yl)-pyridin-2-yl]-amine]"
2,> 7.00,"Fc1cccc2c1[nH]c1nccc(-c3nc(N4CCNCC4)c4c(C5CC5)cncc4n3)c12 [Example 2031, 4-(5-Cyclopropyl-4-piperazin-1-yl-pyrido[3,4-d]pyrimidin-2-yl)-8-fluoro-9H-pyrido[2,3-b]indole]"
3,> 7.00,"Fc1cccn2nc(Nc3cc(-c4nc(N5CCNCC5)c5c(C6CC6)cncc5n4)ccn3)nc12 [Example 2032, [4-(5-Cyclopropyl-4-piperazin-1-yl-pyrido[3,4-d]pyrimidin-2-yl)-pyridin-2-yl]-(8-fluoro-[1,2,4]triazolo[1,5-a]pyridin-2-yl)-amine]"
4,> 7.00,"Fc1ccn2nc(Nc3cc(-c4nc(N5CCNCC5)c5c(C6CC6)cncc5n4)ccn3)nc2c1 [Example 2033, [4-(5-Cyclopropyl-4-piperazin-1-yl-pyrido[3,4-d]pyrimidin-2-yl)-pyridin-2-yl]-(7-fluoro-[1,2,4]triazolo[1,5-a]pyridin-2-yl)-amine]"
5,> 7.00,"Fc1cccc(F)c1Nc1cc(-c2nc(N[C@H]3CCNC3)c3c(C4CC4)cncc3n2)ccn1 [Example 2034, {5-Cyclopropyl-2-[2-(2,6-difluoro-phenylamino)-pyridin-4-yl]-pyrido[3,4-d]pyrimidin-4-yl}-(S)-pyrrolidin-3-yl-amine]"
6,> 7.00,"Fc1cccc(F)c1Nc1cc(-c2nc(N[C@@H]3CCNC3)c3c(C4CC4)cncc3n2)ccn1 [Example 2035, {5-Cyclopropyl-2-[2-(2,6-difluoro-phenylamino)-pyridin-4-yl]-pyrido[3,4-d]pyrimidin-4-yl}-(R)-pyrrolidin-3-yl-amine]"
7,> 7.00,"Fc1ccc2c([nH]c3nccc(-c4nc(N5CCNCC5)c5c(C6CC6)cncc5n4)c32)c1F [Example 2036, 4-(5-Cyclopropyl-4-piperazin-1-yl-pyrido[3,4-d]pyrimidin-2-yl)-7,8-difluoro-9H-pyrido[2,3-b]indole]"
8,> 7.00,"C[C@@H]1CN(c2nc(-c3ccnc(Nc4nc(F)cc(F)c4F)c3)nc3cncc(C4CC4)c23)C[C@H](C)N1 [Example 2037, {4-[5-Cyclopropyl-4-((cis)-3,5-dimethyl-piperazin-1-yl)-pyrido[3,4-d]pyrimidin-2-yl]-pyridin-2-yl}-(3,4,6-trifluoro-pyridin-2-yl)-amine]"
9,> 7.00,"CC1(C)CC(Nc2nc(-c3ccnc(Nc4c(F)cccc4F)c3)nc3cncc(C4CC4)c23)CCN1 (stereo not shown) [Example 2038, {5-Cyclopropyl-2-[2-(2,6-difluoro-phenylamino)-pyridin-4-yl]-pyrido[3,4-d]pyrimidin-4-yl}-(2,2-dimethyl-piperidin-4-yl)-amine]"
10,> 7.00,"Fc1ccc2nc(Nc3cc(-c4nc(N5CCNCC5)c5c(C6CC6)cncc5n4)ccn3)nn2c1 [Example 2039, [4-(5-Cyclopropyl-4-piperazin-1-yl-pyrido[3,4-d]pyrimidin-2-yl)-pyridin-2-yl]-(6-fluoro-[1,2,4]triazolo[1,5-a]pyridin-2-yl)-amine]"
11,> 7.00,"Fc1cc(F)c2nc(Nc3cc(-c4nc(N5CCNCC5)c5c(C6CC6)cncc5n4)ccn3)nn2c1 [Example 2040, [4-(5-Cyclopropyl-4-piperazin-1-yl-pyrido[3,4-d]pyrimidin-2-yl)-pyridin-2-yl]-(6,8-difluoro-[1,2,4]triazolo[1,5-a]pyridin-2-yl)-amine]"
12,> 7.00,"Fc1cccc2nc(Nc3cc(-c4nc(N5CCNCC5)c5c(C6CC6)cncc5n4)ccn3)nn12 [Example 2041, [4-(5-Cyclopropyl-4-piperazin-1-yl-pyrido[3,4-d]pyrimidin-2-yl)-pyridin-2-yl]-(5-fluoro-[1,2,4]triazolo[1,5-a]pyridin-2-yl)-amine]"
13,> 7.00,"CCn1cc(Cl)c(Nc2cc(-c3nc(N4CCNC(C)(C)C4)c4c(C5CC5)cncc4n3)ccn2)n1 [Example 2043, (4-Chloro-1-ethyl-1H-pyrazol-3-yl)-{4-[5-cyclopropyl-4-(3,3-dimethyl-piperazin-1-yl)-pyrido[3,4-d]pyrimidin-2-yl]-pyridin-2-yl}-amine]"
14,> 7.00,"c1ccc2oc(Nc3cc(-c4nc(N5CCNCC5)c5c(C6CC6)cncc5n4)ccn3)nc2c1 [Example 2044, Benzooxazol-2-yl-[4-(5-cyclopropyl-4-piperazin-1-yl-pyrido[3,4-d]pyrimidin-2-yl)-pyridin-2-yl]-amine]"
15,> 7.00,"c1ccc2sc(Nc3cc(-c4nc(N5CCNCC5)c5c(C6CC6)cncc5n4)ccn3)nc2c1 [Example 2045, Benzothiazol-2-yl-[4-(5-cyclopropyl-4-piperazin-1-yl-pyrido[3,4-d]pyrimidin-2-yl)-pyridin-2-yl]-amine]"
16,> 7.00,"Cn1c(Nc2cc(-c3nc(N4CCNCC4)c4c(C5CC5)cncc4n3)ccn2)nc2ccccc21 [Example 2046, [4-(5-Cyclopropyl-4-piperazin-1-yl-pyrido[3,4-d]pyrimidin-2-yl)-pyridin-2-yl]-(1-methyl-1H-benzoimidazol-2-yl)-amine]"
17,> 7.00,"Fc1cc(C2CC2)c(F)nc1Nc1cc(-c2nc(N3CCNCC3)c3c(C4CC4)cncc3n2)ccn1 [Example 2047, (5-Cyclopropyl-3,6-difluoro-pyridin-2-yl)-[4-(5-cyclopropyl-4-piperazin-1-yl-pyrido[3,4-d]pyrimidin-2-yl)-pyridin-2-yl]-amine]"
18,> 7.00,"Fc1ccc(C2(c3cc4c(-c5nc(N6CCNCC6)c6c(C7CC7)cncc6n5)ccnc4[nH]3)CC2)cc1 [Example 2048, 5-Cyclopropyl-2-{2-[1-(4-fluoro-phenyl)-cyclopropyl]-1H-pyrrolo[2,3-b]pyridin-4-yl}-4-piperazin-1-yl-pyrido[3,4-d]pyrimidine]"
19,> 7.00,"C[C@H]1CN(c2nc(-c3ccnc(NC4CCN(CC(F)(F)F)CC4)c3)nc3cncc(C4CC4)c23)CCN1 [Example 2049, {4-[5-Cyclopropyl-4-((S)-3-methyl-piperazin-1-yl)-pyrido[3,4-d]pyrimidin-2-yl]-pyridin-2-yl}-[1-(2,2,2-trifluoro-ethyl)-piperidin-4-yl]-amine]"
20,> 7.00,"c1ccc2cc(Nc3cc(-c4nc(N5CCNCC5)c5c(C6CC6)cncc5n4)ccn3)ccc2c1 [Example 2050, [4-(5-Cyclopropyl-4-piperazin-1-yl-pyrido[3,4-d]pyrimidin-2-yl)-pyridin-2-yl]-naphthalen-2-yl-amine]"
21,> 7.00,"c1ccc(-c2cccc(Nc3cc(-c4nc(N5CCNCC5)c5c(C6CC6)cncc5n4)ccn3)c2)cc1 [Example 2051, Biphenyl-3-yl-[4-(5-cyclopropyl-4-piperazin-1-yl-pyrido[3,4-d]pyrimidin-2-yl)-pyridin-2-yl]-amine]"
22,> 7.00,"CN1CCN(c2cccc(Nc3cc(-c4nc(N5CCN[C@@H](C(F)(F)F)C5)c5c(C6CC6)cncc5n4)ccn3)c2)CC1 [Example 2052, {4-[5-Cyclopropyl-4-((R)-3-trifluoromethyl-piperazin-1-yl)-pyrido[3,4-d]pyrimidin-2-yl]-pyridin-2-yl}-[3-(4-methyl-piperazin-1-yl)-phenyl]-amine]"
